Values after ≈ are worked out from the molar mass of the structure shown.
Assays:
K. pneumoniae = experiment: Bacterial susceptibility testing, MIC by broth microdilution (CLSI); type: cell-based; settings: 35° C., 18-24 h
Method: Minimal inhibitory concentrations (MIC) were determined by the broth microdilution method in accordance with the Clinical and Laboratory Standards Institute (CLSI) guidelines. In brief, organism suspensions were adjusted to a 0.5 McFarland standard to yield a final inoculum between 3×10^3 and 7×10^5 colony-forming units (CFU)/mL. Drug dilutions and inocula were made in sterile, cation adjusted Mueller-Hinton Broth (Beckton Dickinson). An inoculum volume of 100 μL was added to wells containing 100 μL of broth with 2-fold serial dilutions of drug.

E. coli = experiment: as above; settings: for MIC: Escherichia coli, read-out: E. coli MIC, broth microdilution, 35° C., 18-24 h; for E. coli MIC: broth microdilution, 35° C., 18-24 h

SMILES	MIC (E. coli) [µg/mL]	also measured
O=c1[nH]cnc(CC(CO)c2ccc(C#Cc3ccc(CN4CCNCC4)cc3)cc2)c1O (stereo not drawn) [Compound 54]	1 to 8 (≈ 2.25 to 18 µM)	K. pneumoniae MIC (K. pneumoniae): B (B: >1 μg/mL to ≤8.0 μg/mL)
O=c1[nH]cnc(CC(CO)c2ccc(C#Cc3ccc(CN4CCNCC4)cc3)cc2)c1O (stereo not drawn) [Compound 55]		K. pneumoniae MIC (K. pneumoniae): D (D: >32 μg/mL); E. coli MIC (E. coli): B (B: >1 μg/mL to ≤8.0 μg/mL)
N#CCCNCC(Cc1nc[nH]c(=O)c1O)c1ccc(C#Cc2ccc(CN3CC(CC#N)C3)cc2)cc1 (stereo not drawn) [Compound 134]	8 to 32 (≈ 15.8 to 63.2 µM)	
CC(F)CNCC(Cc1nc[nH]c(=O)c1O)c1ccc(C#Cc2ccc(CCN3CCOCC3)cc2)cc1 (stereo not drawn) [Compound 138]	1 to 8 (≈ 1.93 to 15.4 µM)	
O=c1[nH]cnc(CC(NCCCF)c2ccc(C#Cc3ccc(CN4CCOCC4)cc3)cc2)c1O (stereo not drawn) [Compound 139]	< 1	
CC(CF)NC(Cc1nc[nH]c(=O)c1O)c1ccc(C#Cc2ccc(CN3CCOCC3)cc2)cc1 (stereo not drawn) [Compound 141]	< 1	
N=S1(=O)CCC(NCc2ccc(C#Cc3ccc(C(CO)Cc4nc[nH]c(=O)c4O)cc3)cc2)CC1 (stereo not drawn) [Compound 149]	1 to 8 (≈ 1.97 to 15.8 µM)	
O=C(CO)N1CCN(Cc2ccc(C#Cc3ccc(C(CO)Cc4nc[nH]c(=O)c4O)cc3)cc2)CC1 (stereo not drawn) [Compound 152]	< 1	
O=C(C1CC1)N1CC[C@@H](NCc2ccc(C#Cc3ccc(C(CO)Cc4nc[nH]c(=O)c4O)cc3)cc2)C1 (stereo partly drawn) [Compound 153]	< 1	
O=C(CO)N1CCC(NCc2ccc(C#Cc3ccc(C(CO)Cc4nc[nH]c(=O)c4O)cc3)cc2)CC1 (stereo not drawn) [Compound 157]	1 to 8 (≈ 1.94 to 15.5 µM)	
COC1CN(Cc2ccc(C#Cc3ccc(C(Cc4nc[nH]c(=O)c4O)CN4CC(F)C4)cc3)cc2)C1 (stereo not drawn) [Compound 159]		E. coli MIC (E. coli): A (A: ≤1 μg/mL)
COC1CN(Cc2ccc(C#Cc3ccc(C(Cc4nc[nH]c(=O)c4O)CN4CC(F)C4)cc3)cc2)C1 (stereo not drawn) [Compound 160]		E. coli MIC (E. coli): A (A: ≤1 μg/mL)
COCCNCC(Cc1nc[nH]c(=O)c1O)c1ccc(C#Cc2ccc(CN3CCOCC3)cc2)cc1 (stereo not drawn) [Compound 164]	1 to 8 (≈ 1.99 to 15.9 µM)	
O=c1[nH]cnc(CC(NCCCCl)c2ccc(C#Cc3ccc(CN4CCOCC4)cc3)cc2)c1O (stereo not drawn) [Compound 172]	< 1	
COC1CCN(Cc2ccc(C#Cc3ccc(C(N)Cc4nc[nH]c(=O)c4O)cc3)cc2)CC1 (stereo not drawn) [Compound 174]	< 1	
COC1CN(Cc2ccc(C#Cc3ccc(C(Cc4nc[nH]c(=O)c4O)CN4CC(OC)C4)cc3)cc2)C1 (stereo not drawn) [Compound 175]	1 to 8 (≈ 1.94 to 15.5 µM)	
COC1CN(Cc2ccc(C#Cc3ccc(C(Cc4nc[nH]c(=O)c4O)CN4CC(OC)C4)cc3)cc2)C1 (stereo not drawn) [Compound 176]		E. coli MIC (E. coli): A (A: ≤1 μg/mL)
O=c1[nH]cnc(CC(CN2CCC2)c2ccc(C#Cc3ccc(CN4CCOCC4)cc3)cc2)c1O (stereo not drawn) [Compound 177]	< 1	
COC1CN(Cc2ccc(C#Cc3ccc(C(Cc4nc[nH]c(=O)c4O)CN4CC(F)C4)cc3)cc2)C1 (stereo not drawn) [Compound 180]		E. coli MIC (E. coli): C (C: >8.0 μg/mL to ≤32 μg/mL)
COC1CN(Cc2ccc(C#Cc3ccc(C(Cc4nc[nH]c(=O)c4O)CN4CC(F)C4)cc3)cc2)C1 (stereo not drawn) [Compound 181]		E. coli MIC (E. coli): B (B: >1 μg/mL to ≤8.0 μg/mL)
O=c1[nH]cnc(CC(CNCc2ccn[nH]2)c2ccc(C#Cc3ccc(CN4CCOCC4)cc3)cc2)c1O (stereo not drawn) [Compound 184]	1 to 8 (≈ 1.91 to 15.2 µM)	

SMILES	MIC (E. coli) [µg/mL]	also measured
COCC(Cc1nc[nH]c(=O)c1O)c1ccc(C#Cc2ccc(CN3CCOCC3)cc2)cc1 (stereo not drawn) [Compound 190]	< 1	
O=C(NCC(F)F)C(Cc1nc[nH]c(=O)c1O)N1Cc2cc(C#Cc3ccc(CN4CCOCC4)cc3)cn2C1=O (stereo not drawn) [Compound 191]	< 1	
COC(=O)C(Cc1nc[nH]c(=O)c1O)N1Cc2cc(C#Cc3ccc(CN4CCOCC4)cc3)cn2C1=O (stereo not drawn) [Compound 192]	1 to 8 (≈ 1.93 to 15.5 µM)	
O=C1N(C(CO)Cc2nc[nH]c(=O)c2O)Cc2cc(C#Cc3ccc(CN4CCOCC4)cc3)cn21 (stereo not drawn) [Compound 193]	1 to 8 (≈ 2.04 to 16.3 µM)	
O=c1[nH]cnc(CC(CO)c2ccc(C#Cc3cnn(CC4CCOCC4)c3)cc2)c1O (stereo not drawn) [Compound 194]	1 to 8 (≈ 2.3 to 18.4 µM)	
O=c1[nH]cnc(CC(CO)c2ccc(C#Cc3ccc(CN4CCOCC4)nc3)cc2)c1O (stereo not drawn) [Compound 195]	1 to 8 (≈ 2.24 to 17.9 µM)	
O=c1[nH]cnc(CC(CO)c2ccc(C#Cc3ccc(CN4CCOCC4)cc3)cn2)c1O (stereo not drawn) [Compound 196]	1 to 8 (≈ 2.24 to 17.9 µM)	
Cn1cc(C#Cc2ccc(C(CO)Cc3nc[nH]c(=O)c3O)cc2)cn1 (stereo not drawn) [Compound 197]	8 to 32 (≈ 22.8 to 91.3 µM)	
Cn1cc(C#Cc2ccc(C(CNCCF)Cc3nc[nH]c(=O)c3O)cc2)cn1 (stereo not drawn) [Compound 199]	1 to 8 (≈ 2.53 to 20.2 µM)	
Cn1cc(C#Cc2ccc(C(N)Cc3nc[nH]c(=O)c3O)cc2)cn1 (stereo not drawn) [Compound 200]	1 to 8 (≈ 2.98 to 23.9 µM)	
O=c1[nH]cnc(CC(CO)c2ccc(C#Cc3cnn(C4CCOCC4)c3)cc2)c1O (stereo not drawn) [Compound 202]	1 to 8 (≈ 2.38 to 19 µM)	
O=C1N(C(CO)Cc2nc[nH]c(=O)c2O)Cc2cc(-c3ccc(CCN4CCOCC4)cc3)cn21 (stereo not drawn) [Compound 203]	1 to 8 (≈ 2.09 to 16.7 µM)	
O=c1[nH]cnc(C[C@H](CO)c2ccc(C#C[C@H]3CC[C@H](CN4CCOCC4)CC3)cc2)c1O [Compound 204]	8 to 32 (≈ 17.7 to 70.9 µM)	
O=c1[nH]cnc(CC(CNCCF)c2ccc(C#Cc3cnn(C4CCOCC4)c3)cc2)c1O (stereo not drawn) [Compound 205]	1 to 8 (≈ 2.15 to 17.2 µM)	
O=c1[nH]cnc(CC(CNCCF)c2ccc(C#Cc3cnn(CC4CCOCC4)c3)cc2)c1O (stereo not drawn) [Compound 206]	1 to 8 (≈ 2.09 to 16.7 µM)	
O=c1[nH]cnc(CC(CNCCF)c2ccc(C#Cc3ccn4cncc4c3)cc2)c1O (stereo not drawn) [Compound 207]	1 to 8 (≈ 2.32 to 18.5 µM)	
O=c1[nH]cnc(CC(CNCCF)c2ccc(C#Cc3cnn(C4COC4)c3)cc2)c1O (stereo not drawn) [Compound 208]	1 to 8 (≈ 2.29 to 18.3 µM)	
O=c1[nH]cnc(CC2CCc3cc(C#Cc4ccc(CN5CCOCC5)cc4)ccc32)c1O (stereo not drawn) [Compound 209]	1 to 8 (≈ 2.26 to 18.1 µM)	
O=C1NC(Cc2nc[nH]c(=O)c2O)c2ccc(C#Cc3ccc(CN4CCOCC4)cc3)cc21 (stereo not drawn) [Compound 210]	1 to 8 (≈ 2.19 to 17.5 µM)	
O=c1[nH]cnc(CC(CO)n2ccc(C#Cc3ccc(CN4CCOCC4)cc3)cc2=O)c1O (stereo not drawn) [Compound 211]	8 to 32 (≈ 17.3 to 69.2 µM)	
O=C(O)C(Cc1nc[nH]c(=O)c1O)N1Cc2cc(-c3ccc(CCN4CCOCC4)cc3)cn2C1=O (stereo not drawn) [Compound 212]	> 32	

SMILES	MIC (E. coli) [µg/mL]	also measured
NC(Cc1nc[nH]c(=O)c1O)c1ccc(-c2ccc(CCN3CCOCC3)cc2)cc1 (stereo not drawn) [Compound 214]	8 to 32 (≈ 19 to 76.1 µM)	
COC1CN(Cc2ccc(C#Cc3ccc(C(CNC(C)(C)CF)Cc4nc[nH]c(=O)c4O)cc3)cc2)C1 (stereo not drawn) [Compound 221]	< 1	
COC1CN(Cc2ccc(C#Cc3ccc(C(CNC4CC4)Cc4nc[nH]c(=O)c4O)cc3)cc2)C1 (stereo not drawn) [Compound 223]	< 1	
COC1CN(Cc2ccc(C#Cc3ccc(C(CNC4CC4)Cc4nc[nH]c(=O)c4O)cc3)cc2)C1 (stereo not drawn) [Compound 224]		E. coli MIC (E. coli): B (B: >1 μg/mL to ≤8.0 μg/mL)
COC1CN(Cc2ccc(C#Cc3ccc(C(CNC4CC4)Cc4nc[nH]c(=O)c4O)c(F)c3)cc2)C1 (stereo not drawn) [Compound 225]	< 1	
O=c1[nH]cnc(CC(CN2CC(O)C2)c2ccc(C#Cc3ccc(CN4CCOCC4)cc3)cc2F)c1O (stereo not drawn) [Compound 231]	< 1	
O=C(CO)NC1CCN(Cc2ccc(C#Cc3ccc(C(CO)Cc4nc[nH]c(=O)c4O)cc3)cc2)CC1 (stereo not drawn) [Compound 240]	< 1	
O=C(CO)NC1CCN(Cc2ccc(C#Cc3ccc(C(CO)Cc4nc[nH]c(=O)c4O)cc3)cc2)CC1 (stereo not drawn) [Compound 241]		E. coli MIC (E. coli): B (B: >1 μg/mL to ≤8.0 μg/mL)
O=C(CO)NC1CCN(Cc2ccc(C#Cc3ccc(C(CO)Cc4nc[nH]c(=O)c4O)cc3)cc2)CC1 (stereo not drawn) [Compound 242]		E. coli MIC (E. coli): A (A: ≤1 μg/mL)
COC1CN(Cc2ccc(C#Cc3ccc(C(CNC(CO)CF)Cc4nc[nH]c(=O)c4O)cc3)cc2)C1 (stereo not drawn) [Compound 244]	1 to 8 (≈ 1.92 to 15.4 µM)	
COC1CN(Cc2ccc(C#Cc3ccc(C(CNCC(F)CO)Cc4nc[nH]c(=O)c4O)cc3)cc2)C1 (stereo not drawn) [Compound 249]	1 to 8 (≈ 1.92 to 15.4 µM)	
NCC1CN(Cc2ccc(C#Cc3ccc(C(CO)Cc4nc[nH]c(=O)c4O)cc3)cc2)CCO1 (stereo not drawn) [Compound 258]	1 to 8 (≈ 2.11 to 16.9 µM)	
O=c1[nH]cnc(CC(CO)c2ccc(C#Cc3ccc(CNC4CCNCC4)cc3)cc2)c1O (stereo not drawn) [Compound 259]	1 to 8 (≈ 2.18 to 17.4 µM)	
NCC(=O)N1CCC(C#Cc2ccc(C(CO)Cc3nc[nH]c(=O)c3O)cc2)CC1 (stereo not drawn) [Compound 263]	> 32	
O=C(CO)N1CCC(C#Cc2ccc(C(CO)Cc3nc[nH]c(=O)c3O)cc2)CC1 (stereo not drawn) [Compound 264]	> 32	
CS(=O)(=O)NC(Cc1nc[nH]c(=O)c1O)c1ccc(C#Cc2ccc(CN3CCOCC3)cc2)cc1 (stereo not drawn) [Compound 289]	< 1	
CS(=O)(=O)N[C@H](Cc1nc[nH]c(=O)c1O)c1ccc(C#Cc2ccc(CN3CCNC[C@H]3CO)cc2)cc1 [Compound 291]	< 1	
CC(C)(CF)NCC(Cc1nc[nH]c(=O)c1O)c1ccc(C#Cc2ccc(CN3CCOCC3)cc2)cc1 (stereo not drawn) [Compound 301]	< 1	
Cc1nccn1CC(Cc1nc[nH]c(=O)c1O)c1ccc(C#Cc2ccc(CN3CCOCC3)cc2)cc1 (stereo not drawn) [Compound 305]	< 1	

— patent US11407740B2 (priority 2018, dated 2022)
